In US20210276978A1, “INHIBITORS OF HISTONE DEACETYLASE” (Alkermes, Inc., priority 2018, published 2021):

Key:
Full length Human HDAC1 = biological target: T1, Full length Human HDAC1 (Homo sapiens, UniProt Q13547); assay: HDAC1 enzymatic assay (deacetylation of FAM-labeled peptide substrate, microfluidic electrophoresis); type: biochemical; details: 1 uM substrate peptide
T1 construct: Full length Human HDAC1 with; His (C); FLAG (C); host or cells: baculovirus expression system
Protocol: (§1) HDAC2 and HDAC1 Enzymatic Assay (HDAC2 and HDAC1 IC50 Data)
(§2) The following describes an assay protocol for measuring the deacetylation of a peptide substrate by HDAC2 or HDAC1.
(§3) HDAC protein composition and respective substrate peptides are summarized below.
(§4) HDAC reactions are assembled in 384 well plates (Greiner) in a total volume of 20 µL as following:
(§5) HDAC proteins are pre-diluted in the assay buffer comprising: 100 mM HEPES, pH 7.5, 0.1% BSA, 0.01% Triton X-100, 25 mM KCl and dispensed into 384 well plate (10 uL per well).
(§6) Test compounds are serially pre-diluted in DMSO and added to the protein samples by acoustic dispensing (Labcyte Echo). Concentration of DMSO is equalized to 1% in all samples.
(§7) Control samples (0%-inhibition in the absence of inhibitor, DMSO only) and 100%-inhibition (in the absence of enzyme) are assembled in replicates of four and used to calculate the %-inhibition in the presence of compounds.
(§8) At this step compounds can be pre-incubated with enzyme if desired.
(§9) The reactions are initiated by addition of 10 uL of the FAM-labeled substrate peptide pre-diluted in the same assay buffer. Final concentration of substrate peptide is 1 uM (HDAC1-2). The reactions are allowed to proceed at room temperature. Following incubation, the reactions are quenched by addition of 50 µL of termination buffer (100 mM HEPES, pH7.5, 0.01% Triton X-100, 0.1% SDS). Terminated plates are analyzed on a microfluidic electrophoresis instrument (Caliper LabChip® 3000, Caliper Life Sciences/Perkin Elmer) which enables electrophoretic separation of de-acetylated product from acetylated substrate. A change in the relative intensity of the peptide substrate and product is the parameter measured. Activity in each test sample is determined as the product to sum ratio (PSR): P/(S+P), where P is the peak height of the product, and S is the peak height of the substrate. Percent inhibition (Pinh) is determined using the following equation: Pinh=(PSR0% inh−PSRcompound)/(PSR0% inh−PSR100% inh)*100, in which: PSRcompound is the product/sum ratio in the presence of compound, PSR0% inh is the product/sum ratio in the absence of compound and the PSR100% inh is the product/sum ratio in the absence of the enzyme. To determine IC50 of compounds (50%-inhibition) the %-inh data (Pinh versus compound concentration) are fit by a 4 parameter sigmoid dose-response model using XLfit software (IDBS).
(§10) In the table, “A” indicates a IC50 value of less than 0.5 “B” a IC50 value from 0.5 μM to 1.0 μM; “C” a IC50 value of greater than 1.0 μM and less than or equal to 2.0 μM; and “D” indicates an IC50 value of greater than 2.0 NT=Not Tested.

Full length Human HDAC2 = biological target: T2, Full length Human HDAC2 (Homo sapiens, UniProt Q92769); assay: HDAC2 enzymatic assay (deacetylation of FAM-labeled peptide substrate, microfluidic electrophoresis); type: biochemical; details: 1 uM substrate peptide
T2 construct: Full length Human HDAC2 with; FLAG (C); host or cells: baculovirus expression system
T2 sequence (Q92769 whole entry): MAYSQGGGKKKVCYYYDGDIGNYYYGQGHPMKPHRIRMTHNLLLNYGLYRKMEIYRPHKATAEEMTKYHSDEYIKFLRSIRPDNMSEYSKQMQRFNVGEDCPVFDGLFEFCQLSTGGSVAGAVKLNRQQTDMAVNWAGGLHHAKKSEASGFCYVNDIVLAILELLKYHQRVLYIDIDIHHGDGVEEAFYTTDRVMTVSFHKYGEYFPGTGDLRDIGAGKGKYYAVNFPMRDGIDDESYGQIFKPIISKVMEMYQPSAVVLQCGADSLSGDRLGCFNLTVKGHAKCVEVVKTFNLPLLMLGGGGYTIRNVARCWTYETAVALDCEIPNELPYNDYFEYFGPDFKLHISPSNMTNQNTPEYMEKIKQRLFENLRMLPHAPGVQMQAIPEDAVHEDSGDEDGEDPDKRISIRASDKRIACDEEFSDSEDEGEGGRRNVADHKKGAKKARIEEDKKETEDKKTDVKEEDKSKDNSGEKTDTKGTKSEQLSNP
Protocol: as §1, §2, §3, §4, §5, §6, §7, §8, §9, §10

HDAC2 = biological target: T3, HDAC2 (Homo sapiens, UniProt Q92769); assay: HDAC2 enzymatic inhibition assay in SH-SY5Y cell lysate with an exogenous substrate (HDAC-Glo 2); type: cell-based; details: SH-SY5Y cells
T3 construct: host or cells: SH-SY5Y cells
T3 sequence (Q92769 whole entry): as above
Protocol: HDAC2 Enzymatic Inhibition Assay in SH-SY5Y Cell Lysate with an Exogenous Substrate
SH-SY5Y cells (Sigma) were cultured in Eagle's Modified Essential Medium supplemented with 10% fetal bovine serum and pen/strep. Twenty-four hours prior to compound dosing 20 uL of cells were plated in white 384 well plates at a density of 1,500 cells/well. Compounds were serially diluted in neat DMSO and then diluted 1:100 v/v into media without FBS and mixed. Media was removed from the plated cells and the diluted compounds in serum free media (1% v/v final DMSO) were added and incubated at 37.0 for five hours. Ten uL of HDAC-Glo 2 reagent with 0.1% Triton X-100 was then added, the plate was mixed and allowed to develop at room temperature for 100 minutes. Plates were then read with a Spectramax LMax luminometer employing a 0.4 s integration time. Dose response curves were constructed with normalized data where CI-994 at 100 uM was defined as 100% inhibition and DMSO alone as 0% inhibition.
In the table, “A” indicates a IC50 value of less than 0.5 μM; “B” a IC50 value from 0.5 μM to 1.0 μM; “C” a IC50 value of greater than 1.0 μM and less than or equal to 2.0 μM; and “D” indicates an IC50 value of greater than 2.0 μM. NT=Not Tested.

[1] = five hours incubation, HDAC-Glo 2 reagent, class symbols
[2] = HDAC-Glo 2, numeric values, Table 4

T1 sequence (Q13547 whole entry): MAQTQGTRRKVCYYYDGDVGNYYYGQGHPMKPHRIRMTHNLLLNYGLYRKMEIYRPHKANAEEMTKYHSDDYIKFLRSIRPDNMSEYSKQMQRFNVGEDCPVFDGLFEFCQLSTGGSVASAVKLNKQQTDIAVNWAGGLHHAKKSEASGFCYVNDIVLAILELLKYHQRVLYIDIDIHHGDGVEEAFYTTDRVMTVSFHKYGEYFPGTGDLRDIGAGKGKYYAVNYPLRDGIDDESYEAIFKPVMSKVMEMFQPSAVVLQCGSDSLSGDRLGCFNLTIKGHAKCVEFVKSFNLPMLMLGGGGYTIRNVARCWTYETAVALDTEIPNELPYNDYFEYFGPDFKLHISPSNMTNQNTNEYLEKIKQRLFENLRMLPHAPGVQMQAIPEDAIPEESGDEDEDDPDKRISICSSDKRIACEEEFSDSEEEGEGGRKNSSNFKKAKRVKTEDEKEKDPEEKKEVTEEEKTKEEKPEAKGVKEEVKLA

| Structure (SMILES) | IC50 (Full length Human HDAC1) | IC50 (Full length Human HDAC2) | IC50 (HDAC2; [1]) | IC50 (HDAC2; [2]) |
| --- | --- | --- | --- | --- |
| Nc1ccc(-c2ccc(F)cc2F)nc1NC(=O)N1CCC(F)(c2ncccn2)C1 (single isomer, unassigned) [Compound 29E1] | < 0.5 µM | < 0.5 µM | 0.5 to 1 µM | – |
| Nc1ccc(-c2ccc(F)cc2F)nc1NC(=O)N1CCC(F)(c2ncccn2)C1 (single isomer, unassigned) [Compound 29E2] | 1 to 2 µM | 1 to 2 µM | 1 to 2 µM | – |
| Nc1ccc(-c2ccc(F)cc2)nc1NC(=O)N1CCC(F)(c2ncc(F)cn2)C1 (single isomer, unassigned) [Compound 52] | 0.5 to 1 µM | 1 to 2 µM | > 2 µM | – |
| Nc1ccc(-c2ccc(F)cc2)nc1NC(=O)N1CCCC1 [Comparator A, reference compound] | – | – | – | 2.64 µM |
| Nc1ccc(-c2ccc(F)cc2)nc1NC(=O)N1CCC(F)(F)C1 [Comparator B, reference compound] | – | – | – | 14 µM |
| Nc1ccc(-c2ccc(F)cc2)nc1NC(=O)N1CCC(C(F)(F)F)C1 (stereo not shown) [Comparator C, reference compound] | – | – | – | 6.36 µM |
| COCC1CCN(C(=O)Nc2nc(-c3ccc(F)cc3)ccc2N)C1 (stereo not shown) [Comparator E, reference compound] | – | – | – | > 100 µM |
| Nc1ccc(-c2ccc(F)cc2F)nc1NC(=O)N1CC[C@@H](Oc2cccnc2)C1 [Compound 5] | – | – | > 2 µM | – |
| Nc1ccc(-c2ccc(F)cc2F)nc1NC(=O)N1CC[C@H](Oc2cccnc2)C1 [Compound 6] | – | – | > 2 µM | – |
| Cc1ccc(C2CCN(C(=O)Nc3nc(-c4ccc(F)cc4F)ccc3N)C2)cn1 (stereo not shown) [Compound 11] | – | – | > 2 µM | – |
| COCc1cccc(C2CCN(C(=O)Nc3nc(-c4ccc(F)cc4F)ccc3N)C2)n1 (stereo not shown) [Compound 12] | – | – | > 2 µM | – |
| Cc1cc(C2CCN(C(=O)Nc3nc(-c4ccc(F)cc4F)ccc3N)C2)nc(C)n1 (stereo not shown) [Compound 13] | – | – | > 2 µM | – |
| Cc1nccc(C2CCN(C(=O)Nc3nc(-c4ccc(F)cc4F)ccc3N)C2)n1 (stereo not shown) [Compound 15] | – | – | > 2 µM | – |
| Cc1cc(C)nc(C2CCN(C(=O)Nc3nc(-c4ccc(F)cc4F)ccc3N)C2)n1 (stereo not shown) [Compound 16] | – | – | > 2 µM | – |
| Cc1cncc(C2CCN(C(=O)Nc3nc(-c4ccc(F)cc4F)ccc3N)C2)n1 (stereo not shown) [Compound 17] | – | – | 1 to 2 µM | – |
| Nc1ccc(-c2ccc(F)cc2F)nc1NC(=O)N1CCC(Oc2cccnn2)C1 (stereo not shown) [Compound 22] | – | – | > 2 µM | – |
| Cc1ccnc(CC2CCN(C(=O)Nc3nc(-c4ccc(F)cc4F)ccc3N)C2)n1 (stereo not shown) [Compound 27] | – | – | 1 to 2 µM | – |
| Cc1ccc(CC2CCN(C(=O)Nc3nc(-c4ccc(F)cc4F)ccc3N)C2)nn1 (stereo not shown) [Compound 28] | – | – | 1 to 2 µM | – |
| Cc1cnc(C2CCN(C(=O)Nc3nc(-c4ccc(F)cc4F)ccc3N)C2)s1 (stereo not shown) [Compound 30] | – | – | > 2 µM | – |
| Nc1ccc(-c2ccc(F)cc2F)nc1NC(=O)N1CCC(Cc2cccnc2)C1 (stereo not shown) [Compound 31] | – | – | > 2 µM | – |
| Cc1nnc(C2CCN(C(=O)Nc3nc(-c4ccc(F)cc4F)ccc3N)C2)s1 (stereo not shown) [Compound 32] | – | – | 1 to 2 µM | – |
| Nc1ccc(-c2ccc(F)cc2F)nc1NC(=O)N1CCC(Cn2ccnc2)C1 (stereo not shown) [Compound 34] | – | – | > 2 µM | – |
| Nc1ccc(-c2ccc(F)cc2F)nc1NC(=O)N1CCC(Cn2cccn2)C1 (stereo not shown) [Compound 35] | – | – | > 2 µM | – |
| Nc1ccc(-c2ccc(F)cc2F)nc1NC(=O)N1CCC(c2cnc(C(F)F)cn2)C1 (stereo not shown) [Compound 37] | – | – | > 2 µM | – |
| Cc1cnc(CC2CCN(C(=O)Nc3nc(-c4ccc(F)cc4F)ccc3N)C2)o1 (stereo not shown) [Compound 47] | – | – | > 2 µM | – |

The remaining lines, values ahead:

| IC50 (Full length Human HDAC1) | IC50 (Full length Human HDAC2) | IC50 (HDAC2; [1]) | IC50 (HDAC2; [2]) | Structure (SMILES) |
| --- | --- | --- | --- | --- |
| < 0.5 µM | 0.5 to 1 µM | 0.5 to 1 µM | – | Nc1ccc(-c2ccc(F)cc2F)nc1NC(=O)N1CCC(c2ncccn2)C1 (racemic) [Compound 7] |
| < 0.5 µM | < 0.5 µM | – | – | Nc1ccc(-c2ccc(F)cc2F)nc1NC(=O)N1CCC(c2ncccn2)C1 (single isomer, unassigned) [Compound 8E1] |
| 1 to 2 µM | 1 to 2 µM | – | – | Nc1ccc(-c2ccc(F)cc2F)nc1NC(=O)N1CCC(c2ncccn2)C1 (single isomer, unassigned) [Compound 8E2] |
| < 0.5 µM | 0.5 to 1 µM | 0.5 to 1 µM | – | Nc1ccc(-c2ccc(F)cc2F)nc1NC(=O)N1CCC(c2ncc(F)cn2)C1 (single isomer, unassigned) [Compound 14E1] |
| 0.5 to 1 µM | > 2 µM | > 2 µM | – | Nc1ccc(-c2ccc(F)cc2F)nc1NC(=O)N1CCC(c2ncc(F)cn2)C1 (single isomer, unassigned) [Compound 14E2] |
| 0.5 to 1 µM | < 0.5 µM | 1 to 2 µM | – | Nc1ccc(-c2ccc(F)cc2)nc1NC(=O)N1CCC(c2ncccn2)C1 (single isomer, unassigned) [Compound 19E1] |
| < 0.5 µM | < 0.5 µM | 0.5 to 1 µM | – | Nc1ccc(-c2ccc(F)cc2)nc1NC(=O)N1CCC(c2ncccn2)C1 (single isomer, unassigned) [Compound 19E2] |
| 0.5 to 1 µM | 0.5 to 1 µM | 1 to 2 µM | – | Nc1ccc(-c2ccc(F)cc2)nc1NC(=O)N1CCC(c2ncc(F)cn2)C1 (single isomer, unassigned) [Compound 20E1] |
| < 0.5 µM | < 0.5 µM | 0.5 to 1 µM | – | Nc1ccc(-c2ccc(F)cc2)nc1NC(=O)N1CCC(c2ncc(F)cn2)C1 (single isomer, unassigned) [Compound 20E2] |
| 1 to 2 µM | 1 to 2 µM | 0.5 to 1 µM | – | Nc1ccc(-c2ccc(F)cc2F)nc1NC(=O)N1CCC(Cc2ncccn2)C1 (single isomer, unassigned) [Compound 25E1] |
| 1 to 2 µM | > 2 µM | 0.5 to 1 µM | – | Nc1ccc(-c2ccc(F)cc2F)nc1NC(=O)N1CCC(Cc2ncccn2)C1 (single isomer, unassigned) [Compound 25E2] |
| 1 to 2 µM | 1 to 2 µM | > 2 µM | – | Nc1ccc(-c2ccc(F)s2)nc1NC(=O)N1CCC(c2ncccn2)C1 (single isomer, unassigned) [Compound 39] |
| < 0.5 µM | < 0.5 µM | 0.5 to 1 µM | – | Nc1ccc(-c2ccc(F)s2)nc1NC(=O)N1CCC(c2ncccn2)C1 (single isomer, unassigned) [Compound 40] |
| 1 to 2 µM | > 2 µM | 1 to 2 µM | – | Nc1ccc(-c2ccc(F)s2)nc1NC(=O)N1CCC(c2ncc(F)cn2)C1 (single isomer, unassigned) [Compound 43] |
| < 0.5 µM | 0.5 to 1 µM | 0.5 to 1 µM | – | Nc1ccc(-c2ccc(F)s2)nc1NC(=O)N1CCC(c2ncc(F)cn2)C1 (single isomer, unassigned) [Compound 44] |
| 1 µM | 1 to 2 µM | > 2 µM | – | Cc1ccnc(C2CCN(C(=O)Nc3nc(-c4ccc(F)cc4)ccc3N)C2)n1 (single isomer, unassigned) [Compound 50] |
| < 0.5 µM | 0.5 to 1 µM | 1 to 2 µM | – | Cc1ccnc(C2CCN(C(=O)Nc3nc(-c4ccc(F)cc4)ccc3N)C2)n1 (single isomer, unassigned) [Compound 51] |
| – | – | > 2 µM | – | Cc1cnc(C2CCN(C(=O)Nc3nc(-c4ccc(F)cc4F)ccc3N)C2)nc1 (stereo not shown) [Compound 33] |
| – | – | > 2 µM | – | Nc1ccc(-c2ccc(Cl)s2)nc1NC(=O)N1CCC(c2ncccn2)C1 (stereo not shown) [Compound 42] |
